Measurements published in ChEMBL document CHEMBL1201862, “PubChem BioAssay data set” (2004).
Calls of active or inactive are those of the source.

What was measured:
[1] = test system: Streptococcus sp. 'group A'; assay: growth inhibition of control SK(-) GAS strain, dose response, counter-screen for streptokinase expression inhibitor project, luminescence, kanamycin, BacTiterGlo, confirmation (AID 1900); type: functional, organism-based
Vero = assay: host cell cytotoxicity of antiviral hits, dose response, cytotoxicity control for West Nile virus antiviral project, secondary assay (AID 1650); type: functional; settings: Chlorocebus sabaeus
Streptokinase A = target: T1, Streptokinase A (Streptococcus pyogenes serotype M1, UniProt P10520); assay: S. pyogenes streptokinase expression inhibitors, potency, dose response, plasminogen activation absorbance, OD405 (AID 1914); type: functional, Streptococcus pyogenes M1 GAS;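 further: secreted streptokinase activity via plasminogen activation per viability signal from cell pellet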
T1 sequence (P10520 whole entry): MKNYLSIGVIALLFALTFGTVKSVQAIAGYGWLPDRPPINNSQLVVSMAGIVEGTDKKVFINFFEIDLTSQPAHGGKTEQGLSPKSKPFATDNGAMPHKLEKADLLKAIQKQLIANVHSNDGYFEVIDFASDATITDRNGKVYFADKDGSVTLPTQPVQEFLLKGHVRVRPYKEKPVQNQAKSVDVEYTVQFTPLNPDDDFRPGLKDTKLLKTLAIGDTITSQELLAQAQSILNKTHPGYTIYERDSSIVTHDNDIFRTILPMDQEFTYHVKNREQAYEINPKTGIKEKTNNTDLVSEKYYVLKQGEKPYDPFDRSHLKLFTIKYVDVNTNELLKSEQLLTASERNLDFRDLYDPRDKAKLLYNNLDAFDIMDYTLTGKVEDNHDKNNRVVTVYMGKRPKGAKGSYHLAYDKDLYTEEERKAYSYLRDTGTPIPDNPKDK

Streptococcus = assay: Group A Streptococcus viability loss, dose response, counter-screen for streptokinase expression inhibitor project, luminescence, BacTiterGlo (AID 1915); type: functional, organism-based;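 further: potency for reduction of bacterial viability or growth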
[2] = target: T2, ATP-dependent translocase ABCB1 (Homo sapiens, UniProt P08183); assay: ABCG2 efflux pump inhibitor potency, dose response, Ig-MXP3 cells, JC-1, flow cytometry, set 2 (AID 504566); type: functional; settings: read-out: EC50_MICROM_;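 further: flow cytometry median green fluorescence of retained JC-1 dye; potency of efflux pump inhibition measured as rising substrate retention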
T2 sequence (P08183 whole entry): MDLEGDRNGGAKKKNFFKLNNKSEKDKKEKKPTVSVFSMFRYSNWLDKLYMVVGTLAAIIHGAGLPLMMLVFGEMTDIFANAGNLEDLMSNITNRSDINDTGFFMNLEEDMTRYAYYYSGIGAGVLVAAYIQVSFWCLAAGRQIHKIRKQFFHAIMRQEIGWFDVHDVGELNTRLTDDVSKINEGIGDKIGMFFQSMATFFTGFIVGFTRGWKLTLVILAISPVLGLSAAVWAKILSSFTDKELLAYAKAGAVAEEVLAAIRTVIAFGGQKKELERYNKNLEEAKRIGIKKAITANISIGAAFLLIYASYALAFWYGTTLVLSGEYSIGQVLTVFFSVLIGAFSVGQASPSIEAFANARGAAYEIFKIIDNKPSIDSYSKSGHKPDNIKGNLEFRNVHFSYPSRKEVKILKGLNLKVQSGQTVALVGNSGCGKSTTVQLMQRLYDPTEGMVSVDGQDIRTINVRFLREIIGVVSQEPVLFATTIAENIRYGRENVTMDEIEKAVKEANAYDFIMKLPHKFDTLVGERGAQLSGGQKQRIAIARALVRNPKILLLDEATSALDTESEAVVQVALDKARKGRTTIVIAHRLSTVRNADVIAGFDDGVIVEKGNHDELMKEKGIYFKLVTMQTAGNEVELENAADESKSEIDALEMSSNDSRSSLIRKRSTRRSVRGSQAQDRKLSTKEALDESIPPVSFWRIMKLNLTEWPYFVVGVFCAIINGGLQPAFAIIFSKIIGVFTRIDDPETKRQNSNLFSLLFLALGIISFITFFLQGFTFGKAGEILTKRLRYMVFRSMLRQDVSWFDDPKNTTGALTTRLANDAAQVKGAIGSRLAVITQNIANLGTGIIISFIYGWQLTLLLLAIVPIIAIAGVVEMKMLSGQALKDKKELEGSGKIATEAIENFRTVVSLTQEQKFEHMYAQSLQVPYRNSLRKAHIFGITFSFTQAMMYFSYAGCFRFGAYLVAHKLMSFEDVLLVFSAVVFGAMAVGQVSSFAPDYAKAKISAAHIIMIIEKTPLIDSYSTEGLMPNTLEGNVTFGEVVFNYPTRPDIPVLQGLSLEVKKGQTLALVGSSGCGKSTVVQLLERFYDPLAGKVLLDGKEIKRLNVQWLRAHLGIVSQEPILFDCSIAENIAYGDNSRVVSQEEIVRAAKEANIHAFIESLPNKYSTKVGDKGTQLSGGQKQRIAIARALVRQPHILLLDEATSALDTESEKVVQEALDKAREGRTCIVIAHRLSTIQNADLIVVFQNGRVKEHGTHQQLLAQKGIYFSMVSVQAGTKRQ

[3] = target: T2, ATP-dependent translocase ABCB1; assay: ABCB1 efflux inhibitor potency, dose response, Jurkat-DNR cells, JC-1, flow cytometry, set 2 (AID 504569); type: functional; settings: read-out: EC50_MICROM_;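 further: potency of pump inhibitors that raise cellular JC-1 green fluorescence up to the nicardipine level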
[4] = target: T3, Low molecular weight phosphotyrosine protein phosphatase (Homo sapiens, UniProt P24666); type: functional; settings: read-out: IC50_Mean
T3 sequence (P24666 whole entry): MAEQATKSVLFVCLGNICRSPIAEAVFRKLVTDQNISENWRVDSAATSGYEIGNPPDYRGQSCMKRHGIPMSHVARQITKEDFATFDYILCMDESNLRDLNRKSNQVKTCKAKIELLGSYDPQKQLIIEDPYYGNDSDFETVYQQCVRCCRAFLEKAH

[5] = target: T3, Low molecular weight phosphotyrosine protein phosphatase; type: functional; settings: read-out: IC50_Mean; remark: listed apart in the source
[6] = target: T4, Long-chain-fatty-acid--AMP ligase FadD28 (Mycobacterium tuberculosis, UniProt P9WQ59); assay: Fluorescence polarization aasay to screen for inhibitors that compete for the binding of FadD28 to a bisubstrate Measured in Biochemical System Using Plate Reader - 2147-01_Inhibitor_Dose_CherryPick_Activity.; type: functional, Mycobacterium tuberculosis H37Rv
T4 sequence (P9WQ59 whole entry): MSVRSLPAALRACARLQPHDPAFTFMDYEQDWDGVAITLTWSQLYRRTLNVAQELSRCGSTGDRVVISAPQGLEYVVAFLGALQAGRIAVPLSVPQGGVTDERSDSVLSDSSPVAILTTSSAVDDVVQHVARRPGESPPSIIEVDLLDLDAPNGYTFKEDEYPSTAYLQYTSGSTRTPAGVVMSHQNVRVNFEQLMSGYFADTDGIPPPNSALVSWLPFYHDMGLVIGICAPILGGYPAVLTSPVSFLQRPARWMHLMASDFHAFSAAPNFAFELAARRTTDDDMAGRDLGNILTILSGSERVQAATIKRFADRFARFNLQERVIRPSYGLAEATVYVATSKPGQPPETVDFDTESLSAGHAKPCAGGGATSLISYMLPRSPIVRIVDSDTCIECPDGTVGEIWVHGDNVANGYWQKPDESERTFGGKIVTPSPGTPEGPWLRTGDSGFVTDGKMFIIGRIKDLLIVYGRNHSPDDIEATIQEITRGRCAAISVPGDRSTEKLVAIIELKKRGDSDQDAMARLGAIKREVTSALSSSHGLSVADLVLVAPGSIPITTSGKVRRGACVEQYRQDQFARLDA

[7] = target: T5, Carboxy-terminal domain RNA polymerase II polypeptide A small phosphatase 1 (Homo sapiens, UniProt Q9GZU7); assay: inhibitors of CTDSP1, concentration-response testing, biochemical assay, absorbance-based, actives from ultra-high-throughput screening (AID 540297); type: functional
T5 sequence (Q9GZU7 whole entry): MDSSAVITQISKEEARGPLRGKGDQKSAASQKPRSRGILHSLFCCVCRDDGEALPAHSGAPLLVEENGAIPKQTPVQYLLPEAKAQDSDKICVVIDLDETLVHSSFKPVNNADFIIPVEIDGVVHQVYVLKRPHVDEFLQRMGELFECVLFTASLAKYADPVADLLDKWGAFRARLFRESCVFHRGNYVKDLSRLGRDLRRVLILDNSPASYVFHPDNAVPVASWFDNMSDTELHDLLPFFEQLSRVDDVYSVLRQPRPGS

[8] = target: T6, Tyrosine-protein phosphatase non-receptor type 11 (Homo sapiens, UniProt Q06124); assay: SHP2 phosphatase inhibition, dose response, selectivity assay for STEP inhibitor project, biochemical (AID 602367); type: functional; settings: read-out: IC50_Mean
T6 sequence (Q06124 whole entry): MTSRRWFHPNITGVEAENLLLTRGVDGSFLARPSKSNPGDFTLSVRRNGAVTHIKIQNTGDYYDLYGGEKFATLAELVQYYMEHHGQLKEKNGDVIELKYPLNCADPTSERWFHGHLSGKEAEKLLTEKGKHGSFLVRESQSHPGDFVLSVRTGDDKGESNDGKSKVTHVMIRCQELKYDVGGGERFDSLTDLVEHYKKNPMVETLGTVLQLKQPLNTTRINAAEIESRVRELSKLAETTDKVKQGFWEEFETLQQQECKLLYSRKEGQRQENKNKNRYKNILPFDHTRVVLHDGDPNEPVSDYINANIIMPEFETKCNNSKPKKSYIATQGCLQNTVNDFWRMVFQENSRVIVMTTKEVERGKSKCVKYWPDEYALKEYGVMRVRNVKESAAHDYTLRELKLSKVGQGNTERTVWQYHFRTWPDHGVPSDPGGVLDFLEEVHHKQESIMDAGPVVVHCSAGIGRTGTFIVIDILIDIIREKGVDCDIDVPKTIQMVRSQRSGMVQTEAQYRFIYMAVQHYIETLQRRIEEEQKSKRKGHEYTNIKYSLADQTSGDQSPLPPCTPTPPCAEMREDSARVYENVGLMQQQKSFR

[9] = target: T7, Tyrosine-protein phosphatase non-receptor type 5 (Homo sapiens, UniProt P54829); assay: STEP phosphatase inhibitors, confirmation, biochemical, fluorescence intensity, uHTS hits (AID 602372); type: functional; settings: read-out: IC50_Mean
T7 sequence (P54829 whole entry): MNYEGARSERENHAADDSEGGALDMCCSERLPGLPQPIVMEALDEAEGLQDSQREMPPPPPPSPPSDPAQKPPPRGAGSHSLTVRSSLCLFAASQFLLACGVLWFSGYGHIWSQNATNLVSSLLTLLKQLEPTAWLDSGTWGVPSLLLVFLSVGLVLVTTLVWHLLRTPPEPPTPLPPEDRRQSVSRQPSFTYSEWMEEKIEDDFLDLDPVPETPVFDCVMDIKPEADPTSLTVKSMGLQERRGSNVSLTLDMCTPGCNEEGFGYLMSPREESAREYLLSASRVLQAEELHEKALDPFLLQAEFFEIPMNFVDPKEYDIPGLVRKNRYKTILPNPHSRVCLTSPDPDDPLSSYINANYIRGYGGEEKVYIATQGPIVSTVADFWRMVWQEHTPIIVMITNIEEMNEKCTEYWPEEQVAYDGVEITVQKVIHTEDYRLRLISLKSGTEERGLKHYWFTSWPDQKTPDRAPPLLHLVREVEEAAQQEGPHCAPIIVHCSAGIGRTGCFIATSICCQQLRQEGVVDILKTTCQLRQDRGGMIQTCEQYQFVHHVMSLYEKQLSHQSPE

[10] = target: Dual specificity protein phosphatase 3 (Homo sapiens, UniProt P51452); assay: VHR phosphatase inhibition, dose response, selectivity assay for STEP inhibitor project, biochemical (AID 602374); type: functional; settings: read-out: IC50_Mean
Chain of Dual specificity protein phosphatase 3 (P51452 whole entry): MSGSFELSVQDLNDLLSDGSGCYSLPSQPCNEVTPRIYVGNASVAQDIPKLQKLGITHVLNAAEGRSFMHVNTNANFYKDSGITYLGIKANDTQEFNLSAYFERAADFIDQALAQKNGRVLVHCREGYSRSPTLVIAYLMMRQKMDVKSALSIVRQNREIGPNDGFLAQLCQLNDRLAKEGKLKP

[11] = target: T8, Nuclear receptor subfamily 0 group B member 1 (Homo sapiens, UniProt P51843); type: functional, cell-based;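 further: HEK293T cells transfected with SF-1 and DAX-1 plus StAR promoter luciferase reporter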
T8 sequence (P51843 whole entry): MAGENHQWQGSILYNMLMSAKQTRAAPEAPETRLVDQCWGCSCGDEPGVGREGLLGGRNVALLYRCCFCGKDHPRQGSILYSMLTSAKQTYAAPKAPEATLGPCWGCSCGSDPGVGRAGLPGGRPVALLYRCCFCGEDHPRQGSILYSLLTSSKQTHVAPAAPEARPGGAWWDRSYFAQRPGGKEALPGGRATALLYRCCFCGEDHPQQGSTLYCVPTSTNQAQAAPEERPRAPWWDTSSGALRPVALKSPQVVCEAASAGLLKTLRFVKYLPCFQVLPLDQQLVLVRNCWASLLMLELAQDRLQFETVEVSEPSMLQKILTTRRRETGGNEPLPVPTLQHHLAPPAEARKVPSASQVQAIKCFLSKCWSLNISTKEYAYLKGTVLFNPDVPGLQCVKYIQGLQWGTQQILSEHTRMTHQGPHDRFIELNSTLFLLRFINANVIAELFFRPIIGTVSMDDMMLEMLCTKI

Mu-type opioid receptor = Mu-type opioid receptor (Homo sapiens, UniProt P35372); type: functional, cell-based;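 further: U2OS cells with beta-arrestin recruitment to OPRM1 by beta-gal complementation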
Chain of Mu-type opioid receptor (P35372 whole entry): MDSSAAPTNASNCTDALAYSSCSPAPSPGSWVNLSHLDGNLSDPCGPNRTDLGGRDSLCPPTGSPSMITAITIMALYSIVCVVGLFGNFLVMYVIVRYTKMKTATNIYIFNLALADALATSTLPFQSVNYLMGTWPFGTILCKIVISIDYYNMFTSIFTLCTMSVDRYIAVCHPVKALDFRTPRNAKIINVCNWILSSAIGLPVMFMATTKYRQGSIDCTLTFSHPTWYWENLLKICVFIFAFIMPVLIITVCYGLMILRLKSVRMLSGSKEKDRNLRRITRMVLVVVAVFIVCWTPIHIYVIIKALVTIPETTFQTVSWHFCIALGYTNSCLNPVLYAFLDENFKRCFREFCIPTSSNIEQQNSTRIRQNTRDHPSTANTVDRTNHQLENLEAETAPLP

[12] = target: 5-hydroxytryptamine receptor 2A (Mus musculus, UniProt P35363); type: functional, cell-based;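 further: CHO-K1 cells with tagged receptor and beta-arrestin; agonist potency measured as compound-induced activation of the receptor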
Chain of 5-hydroxytryptamine receptor 2A (P35363 whole entry): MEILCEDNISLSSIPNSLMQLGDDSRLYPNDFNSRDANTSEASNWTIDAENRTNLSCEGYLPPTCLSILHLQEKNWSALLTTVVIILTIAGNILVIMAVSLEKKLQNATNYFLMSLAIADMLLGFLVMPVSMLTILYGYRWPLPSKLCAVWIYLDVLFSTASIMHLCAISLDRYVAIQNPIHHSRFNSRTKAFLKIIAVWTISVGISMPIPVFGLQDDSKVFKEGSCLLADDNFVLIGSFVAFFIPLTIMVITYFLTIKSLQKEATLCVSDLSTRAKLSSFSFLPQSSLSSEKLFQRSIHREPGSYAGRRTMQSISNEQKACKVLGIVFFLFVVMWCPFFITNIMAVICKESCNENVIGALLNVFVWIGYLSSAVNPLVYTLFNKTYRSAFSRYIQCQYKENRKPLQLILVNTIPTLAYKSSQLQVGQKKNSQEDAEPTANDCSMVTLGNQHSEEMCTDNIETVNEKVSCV

BJ [13] = assay: cytotoxicity toward BJ-TERT fibroblasts, dose response, cell-based, RAS-independent, luminescence (AID 1933); type: functional; settings: Homo sapiens
[14] = Luminescence Cell-Based Dose Response HTS to Identify Inhibitors of 5'UTR Stem-Loop Driven Prion Protein mRNA Translation in H4 Neuroglioblastoma Cells. [Related pubchem assays: 1827 (Project Summary), 1813 (Primary HTS)]; type: functional
[15] = inhibitors of SNCA 5'UTR-driven reporter translation, confirmation, H4 neuroglioma cells, luminescence (AID 1988); type: functional, cell-based
BJ [16] = assay: cells; type: functional, cell-based; settings: Homo sapiens
BJ [17] = assay: cytotoxicity toward BJ-TERT-LT-ST fibroblasts, dose response, cell-based, RAS-independent, luminescence (AID 1935); type: functional; settings: Homo sapiens;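 further: BJ fibroblasts immortalized with TERT plus LT and ST oncogenes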
[18] = cytotoxicity toward DRD oncogenic fibroblasts, dose response, cell-based, non-viral oncogenic, luminescence (AID 1934); type: functional; settings: Homo sapiens
HEK293 = assay: inhibitors of LMP1-driven NF-kB reporter, dose response, cell-based, HEK293, luciferase, cherry-pick (AID 588343); type: functional; settings: Homo sapiens
cells = type: functional, cell-based
[19] = A549 cell cytotoxicity, dose response, cytotoxicity control, plate reader, cherry-pick, antagonist series (AID 743412); type: functional, cell-based
[20] = HepG2 cell cytotoxicity, dose response, cytotoxicity control, plate reader, cherry-pick, antagonist series (AID 743416); type: functional, cell-based
[21] = LGR2 antagonists, dose response, cell-based, HEK293, CRE-luciferase reporter, cherry pick, set 2 (AID 743343); type: functional;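 further: transfected cells were stimulated with diluted bursicon conditioned medium after compound addition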
[22] = MC4R antagonists, dose response, counter-screen for LGR2 antagonist project, cell-based, plate reader, cherry pick (AID 743444); type: functional;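 further: transfected HEK 293 cells stimulated with alpha-MSH peptide; potency of inhibitors of the alpha-MSH evoked signal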
[23] = HEK293 cell cytotoxicity, dose response, cytotoxicity control, plate reader, cherry-picked samples (AID 743446); type: functional, cell-based

Cc1nn2c(N3CCN(C(=O)c4ccco4)CC3)cc(C(C)(C)C)nc2c1-c1ccccc1
EC50 [1]: 3.59 µM (active)
CC50 (Vero): 42.1 µM (active)
EC50 (Streptokinase A): 8.62 µM (active)
EC50 (Streptococcus): 22.1 µM (active)
EC50 [2]: 6.22 µM (active)
EC50 [3]: 11.1 µM (active)

CNc1nc2c(-c3ccc(Cl)cc3)nnn2c2ccccc12
IC50 [4]: 11.1 µM (active)
IC50 [5]: 3.14 µM (active)

COC(=O)c1ccc(COc2ccc(/C=N/Nc3cccc(C(=O)O)c3)cc2)cc1
AC50 [6]: 48.9 µM (active)

O=C(COc1ccc(/C=N/NC(=O)c2ccccc2O)cc1)Nc1ccccc1
IC50 [7]: 5.32 µM (active)
IC50 [8]: 4.22 µM (active)
IC50 [9]: 11.7 µM (active)
IC50 [10]: 3.88 µM (active)
IC50 [4]: 16.4 µM (active)
IC50 [5]: 39.9 µM (inactive)

COC(=O)Nc1nc2ccc(C(=O)c3cccs3)cc2[nH]1 [NOCODAZOLE]
IC50 [11]: > 0.833 µM (active)

CCc1ccc(CN2CCN(C(=O)c3ccco3)CC2)cc1
EC50 (Mu-type opioid receptor): 92.5 µM (inactive)
EC50 [12]: 0.219 µM (active)

O=C(c1ccco1)N1CCN(Cc2ccc(F)cc2)CC1
EC50 (Mu-type opioid receptor): 92.5 µM (inactive)
EC50 [12]: 7.5 µM (active)

CCCCC(=O)Nc1ccc(C(=O)NNC(=O)c2ccc(C)c(Br)c2)cc1
IC50 [7]: 10.2 µM (active)
IC50 [8]: 3.17 µM (active)
IC50 [9]: 28 µM (inactive)
IC50 [10]: 4.58 µM (active)
IC50 [4]: 16.6 µM (active)
IC50 [5]: 17.2 µM (active)

COc1ccc(-c2ccc(NC(=O)c3ccco3)cc2)nn1
EC50 (BJ [13]): 5.74 µM (active)
EC50 [14]: 4.34 µM (active)
EC50 [15]: 5.37 µM (active)
EC50 (BJ [16]): 10.1 µM (active)
EC50 (BJ [17]): 21.8 µM (active)
EC50 [18]: 7.33 µM (active)
AC50 (HEK293): 1.51 µM (active)
IC50 (cells): > 67.6 µM (inactive)
IC50 [11]: > 67.6 µM (inactive)
AC50 [19]: 11.1 µM (active)
AC50 [20]: 15.2 µM (active)
AC50 [21]: 3.8 µM (active)
AC50 [22]: 3.59 µM (active)
AC50 [23]: 21.9 µM (active)
